Consider 10 compounds from ChEMBL document CHEMBL1201862, “PubChem BioAssay data set” (2004).

The target of assay [1] is T1, Low molecular weight phosphotyrosine protein phosphatase (Homo sapiens, UniProt P24666).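 Note: Dose-response confirmation assay measuring inhibition of LMPTP enzyme activity by fluorescence intensity read-out.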
T1 sequence (P24666 whole entry): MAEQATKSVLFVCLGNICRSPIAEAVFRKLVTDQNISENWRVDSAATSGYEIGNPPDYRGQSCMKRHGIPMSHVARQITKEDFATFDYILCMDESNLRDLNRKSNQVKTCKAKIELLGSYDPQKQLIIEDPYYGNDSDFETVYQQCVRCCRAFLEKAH
It counts as functional. Particulars: read-out: IC50_Mean.

In assay [2] the target is Cytochrome P450 3A4 (Homo sapiens, UniProt P08684). Particulars: Potency.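 Note: confirmatory qHTS run detecting inhibitors and substrates of CYP3A4.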
Cytochrome P450 3A4, sequence (P08684 whole entry): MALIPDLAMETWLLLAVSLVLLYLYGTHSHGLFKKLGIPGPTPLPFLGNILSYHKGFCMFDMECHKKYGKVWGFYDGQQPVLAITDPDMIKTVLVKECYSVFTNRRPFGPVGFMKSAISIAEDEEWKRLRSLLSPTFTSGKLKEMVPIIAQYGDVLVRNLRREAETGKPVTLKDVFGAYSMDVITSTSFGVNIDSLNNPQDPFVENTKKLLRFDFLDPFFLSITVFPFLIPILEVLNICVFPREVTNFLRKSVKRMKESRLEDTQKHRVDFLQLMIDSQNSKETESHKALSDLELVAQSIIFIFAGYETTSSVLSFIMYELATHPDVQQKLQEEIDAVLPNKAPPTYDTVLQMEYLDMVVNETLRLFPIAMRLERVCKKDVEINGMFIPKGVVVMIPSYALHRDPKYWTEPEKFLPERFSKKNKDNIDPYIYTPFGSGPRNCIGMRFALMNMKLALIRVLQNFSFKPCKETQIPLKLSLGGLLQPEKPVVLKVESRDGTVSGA
The target in assay [3] is Voltage-gated inwardly rectifying potassium channel KCNH2 (Homo sapiens, UniProt Q12809). The following applies: Potency.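 Note: confirmatory quantitative high-throughput screen measuring inhibition of hERG channel activity.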
Voltage-gated inwardly rectifying potassium channel KCNH2, sequence (Q12809 whole entry): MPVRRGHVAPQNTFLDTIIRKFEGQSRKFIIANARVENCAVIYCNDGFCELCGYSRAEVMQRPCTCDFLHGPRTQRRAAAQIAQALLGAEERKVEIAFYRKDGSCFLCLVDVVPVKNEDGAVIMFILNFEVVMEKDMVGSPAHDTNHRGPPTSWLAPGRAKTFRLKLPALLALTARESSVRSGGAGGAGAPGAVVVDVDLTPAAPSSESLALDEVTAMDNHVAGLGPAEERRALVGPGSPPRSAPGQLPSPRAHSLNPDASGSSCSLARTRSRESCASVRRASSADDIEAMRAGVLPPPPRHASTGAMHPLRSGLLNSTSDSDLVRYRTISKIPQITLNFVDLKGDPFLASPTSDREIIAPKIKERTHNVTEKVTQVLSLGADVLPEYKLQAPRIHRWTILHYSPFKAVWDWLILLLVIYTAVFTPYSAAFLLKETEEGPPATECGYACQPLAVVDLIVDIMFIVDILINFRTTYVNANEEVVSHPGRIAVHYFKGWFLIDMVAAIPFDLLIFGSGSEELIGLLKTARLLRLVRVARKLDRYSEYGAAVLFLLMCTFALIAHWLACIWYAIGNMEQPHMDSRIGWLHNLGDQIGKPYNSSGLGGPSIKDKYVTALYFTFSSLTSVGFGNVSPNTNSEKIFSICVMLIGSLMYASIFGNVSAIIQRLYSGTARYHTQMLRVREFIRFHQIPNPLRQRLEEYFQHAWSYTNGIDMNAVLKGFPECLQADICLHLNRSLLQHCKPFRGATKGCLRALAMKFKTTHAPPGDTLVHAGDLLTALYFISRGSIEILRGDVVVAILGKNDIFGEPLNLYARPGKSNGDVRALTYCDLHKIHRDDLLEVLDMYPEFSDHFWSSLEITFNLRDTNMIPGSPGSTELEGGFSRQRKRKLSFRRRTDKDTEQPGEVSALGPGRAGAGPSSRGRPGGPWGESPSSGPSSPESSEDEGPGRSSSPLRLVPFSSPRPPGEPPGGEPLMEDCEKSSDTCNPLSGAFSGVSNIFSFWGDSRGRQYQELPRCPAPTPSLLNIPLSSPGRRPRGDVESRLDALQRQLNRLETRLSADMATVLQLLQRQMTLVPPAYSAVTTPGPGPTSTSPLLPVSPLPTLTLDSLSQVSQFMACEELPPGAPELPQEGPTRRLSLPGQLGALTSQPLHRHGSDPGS
A short description of assay [4]: NIH-3T3 fibroblast cytotoxicity, dose response, cytotoxicity control, cell-based, fluorescence, Alamar Blue, secondary assay (AID 2327).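 Note: NIH-3T3 mouse fibroblasts cultured with fluconazole at 8 µg/mL.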 It counts as functional. (Alamar Blue is a resazurin reagent that responds to reducing activity.)
Assay [5] is described as follows: C. albicans growth with fluconazole, confirmation, fluorescence, retest (AID 2467). Type of assay: functional, cell-based.
In assay [6] the target is T2, Serine/threonine-protein phosphatase (Candida dubliniensis (strain CD36 / CBS 7987 / NCPF 3949 / NRRLY-17841) (Yeast), UniProt B9W6M3).
T2 sequence (B9W6M3 whole entry): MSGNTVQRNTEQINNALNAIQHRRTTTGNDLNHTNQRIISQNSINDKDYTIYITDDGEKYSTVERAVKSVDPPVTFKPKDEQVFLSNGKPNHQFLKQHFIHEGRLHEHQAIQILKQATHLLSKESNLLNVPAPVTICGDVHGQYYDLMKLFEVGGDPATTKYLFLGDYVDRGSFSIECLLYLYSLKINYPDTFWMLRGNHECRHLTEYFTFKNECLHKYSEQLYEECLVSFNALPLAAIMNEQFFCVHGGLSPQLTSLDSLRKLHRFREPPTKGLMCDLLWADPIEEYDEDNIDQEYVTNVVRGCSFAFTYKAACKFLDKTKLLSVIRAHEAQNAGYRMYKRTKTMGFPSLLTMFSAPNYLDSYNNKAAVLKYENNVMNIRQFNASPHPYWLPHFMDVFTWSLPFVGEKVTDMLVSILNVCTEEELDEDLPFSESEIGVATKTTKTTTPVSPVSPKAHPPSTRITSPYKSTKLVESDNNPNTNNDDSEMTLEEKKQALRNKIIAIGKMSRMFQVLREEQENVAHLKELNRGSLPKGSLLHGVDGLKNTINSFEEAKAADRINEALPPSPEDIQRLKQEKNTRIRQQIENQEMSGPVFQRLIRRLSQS
The experiment in a line: calcineurin pathway inhibitors in yeast reporter, dose response, S. cerevisiae, CDRE-lacZ, luminescence, secondary (AID 2388).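 Note: yeast reporter cells carrying a calcineurin-responsive lacZ construct stimulated with calcium chloride; luminescent beta-galactosidase reporter signal in whole cells rather than isolated phosphatase activity; potency for inhibition where a drop in reporter signal means calcineurin blockade.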 Type of assay: functional, cell-based.

Assay [7] deals with ATP-dependent molecular chaperone HSP82 (Candida albicans (strain WO-1) (Yeast), UniProt C4YTQ8). As to the kind of experiment: loss of DOC-induced GRE-beta-galactosidase reporter signal, dose response, Hsp90 inhibitor project, S. cerevisiae, luminescence (AID 2400).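 Note: beta-galactosidase luminescence from glucocorticoid response element reporter as proxy for Hsp90 function; inhibitor potency where signal loss means Hsp90 inhibition.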 Type of assay: functional, cell-based.
ATP-dependent molecular chaperone HSP82, sequence (C4YTQ8 whole entry): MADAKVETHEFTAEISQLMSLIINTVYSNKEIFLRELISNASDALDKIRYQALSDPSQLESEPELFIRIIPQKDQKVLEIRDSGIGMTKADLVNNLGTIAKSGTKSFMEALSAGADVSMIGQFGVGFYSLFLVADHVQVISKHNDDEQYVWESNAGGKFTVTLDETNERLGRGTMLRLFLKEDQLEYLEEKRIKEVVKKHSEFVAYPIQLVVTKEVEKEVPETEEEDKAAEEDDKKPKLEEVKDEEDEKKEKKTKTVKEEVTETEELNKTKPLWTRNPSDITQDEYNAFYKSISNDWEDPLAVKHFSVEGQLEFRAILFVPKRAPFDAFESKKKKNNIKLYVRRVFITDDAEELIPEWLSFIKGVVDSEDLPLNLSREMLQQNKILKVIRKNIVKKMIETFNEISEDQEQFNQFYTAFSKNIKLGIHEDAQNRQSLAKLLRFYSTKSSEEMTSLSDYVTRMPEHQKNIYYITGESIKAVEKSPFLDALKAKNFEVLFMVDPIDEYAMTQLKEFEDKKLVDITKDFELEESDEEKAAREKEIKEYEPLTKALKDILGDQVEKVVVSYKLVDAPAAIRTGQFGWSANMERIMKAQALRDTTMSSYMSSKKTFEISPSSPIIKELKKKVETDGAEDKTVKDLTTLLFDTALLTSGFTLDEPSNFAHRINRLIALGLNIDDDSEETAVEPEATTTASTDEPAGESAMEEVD
Assay [8] deals with Streptococcus sp. 'group A'. The experiment in a line: growth inhibition of control SK(-) GAS strain, dose response, counter-screen for streptokinase expression inhibitor project, luminescence, kanamycin, BacTiterGlo, confirmation (AID 1900). It counts as functional, organism-based. On the technique in general: Counterscreens check selectivity or assay interference.
The target of assay [9] is T3, Streptokinase A (Streptococcus pyogenes serotype M1, UniProt P10520).
T3 sequence (P10520 whole entry): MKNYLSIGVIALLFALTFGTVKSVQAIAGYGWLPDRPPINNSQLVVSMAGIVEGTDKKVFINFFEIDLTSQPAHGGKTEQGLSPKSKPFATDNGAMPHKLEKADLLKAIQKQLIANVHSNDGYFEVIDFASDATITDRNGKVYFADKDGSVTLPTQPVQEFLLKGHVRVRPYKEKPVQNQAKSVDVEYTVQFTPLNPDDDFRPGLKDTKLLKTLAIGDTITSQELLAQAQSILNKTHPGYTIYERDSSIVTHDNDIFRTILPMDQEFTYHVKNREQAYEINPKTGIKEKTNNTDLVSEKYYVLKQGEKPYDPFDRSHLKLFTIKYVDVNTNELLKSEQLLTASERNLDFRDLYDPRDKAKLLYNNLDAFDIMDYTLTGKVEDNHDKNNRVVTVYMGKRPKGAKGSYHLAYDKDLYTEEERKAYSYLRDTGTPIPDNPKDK
The experiment in a line: S. pyogenes streptokinase expression inhibitors, potency, dose response, plasminogen activation absorbance, OD405 (AID 1914).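 Note: secreted streptokinase activity via plasminogen activation per viability signal from cell pellet.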 Type of assay: functional, Streptococcus pyogenes M1 GAS.

Assay [10] concerns Streptococcus. The experiment in a line: Group A Streptococcus viability loss, dose response, counter-screen for streptokinase expression inhibitor project, luminescence, BacTiterGlo (AID 1915).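 Note: potency for reduction of bacterial viability or growth.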 It counts as functional, organism-based.
Assay [11] has as its target T4, Corticotropin-releasing factor receptor 2/Corticotropin-releasing factor-binding protein (Homo sapiens, UniProt P24387+Q13324).
T4 sequence (Q13324 whole entry): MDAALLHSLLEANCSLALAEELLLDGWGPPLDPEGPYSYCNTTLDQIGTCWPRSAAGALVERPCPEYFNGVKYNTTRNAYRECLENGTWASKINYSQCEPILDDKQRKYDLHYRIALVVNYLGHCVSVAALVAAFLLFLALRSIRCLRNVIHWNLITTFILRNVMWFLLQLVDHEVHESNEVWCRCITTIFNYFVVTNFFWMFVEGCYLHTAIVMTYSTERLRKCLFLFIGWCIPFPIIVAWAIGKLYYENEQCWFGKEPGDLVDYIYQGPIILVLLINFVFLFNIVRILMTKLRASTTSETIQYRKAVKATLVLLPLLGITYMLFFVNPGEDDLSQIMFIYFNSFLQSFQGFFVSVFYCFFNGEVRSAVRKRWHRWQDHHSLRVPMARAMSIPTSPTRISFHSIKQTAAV
T4 sequence (P24387 whole entry): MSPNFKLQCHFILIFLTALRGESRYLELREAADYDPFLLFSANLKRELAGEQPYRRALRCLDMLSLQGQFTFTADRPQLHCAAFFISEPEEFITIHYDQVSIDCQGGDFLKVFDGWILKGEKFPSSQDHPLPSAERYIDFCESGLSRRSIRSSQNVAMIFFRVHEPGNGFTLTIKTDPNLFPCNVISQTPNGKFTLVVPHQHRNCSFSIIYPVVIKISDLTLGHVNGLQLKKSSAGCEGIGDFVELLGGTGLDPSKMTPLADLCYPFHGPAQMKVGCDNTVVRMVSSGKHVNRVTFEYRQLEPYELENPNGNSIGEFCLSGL
As to the kind of experiment: activators of CRF receptor 2 with binding protein – uHTS hits, confirmation (AID 602473). Type of assay: functional. Particulars: read-out: EC50_Mean.

Assay [12] deals with T5, Apoptotic protease-activating factor 1 (Homo sapiens, UniProt O14727).
T5 sequence (O14727 whole entry): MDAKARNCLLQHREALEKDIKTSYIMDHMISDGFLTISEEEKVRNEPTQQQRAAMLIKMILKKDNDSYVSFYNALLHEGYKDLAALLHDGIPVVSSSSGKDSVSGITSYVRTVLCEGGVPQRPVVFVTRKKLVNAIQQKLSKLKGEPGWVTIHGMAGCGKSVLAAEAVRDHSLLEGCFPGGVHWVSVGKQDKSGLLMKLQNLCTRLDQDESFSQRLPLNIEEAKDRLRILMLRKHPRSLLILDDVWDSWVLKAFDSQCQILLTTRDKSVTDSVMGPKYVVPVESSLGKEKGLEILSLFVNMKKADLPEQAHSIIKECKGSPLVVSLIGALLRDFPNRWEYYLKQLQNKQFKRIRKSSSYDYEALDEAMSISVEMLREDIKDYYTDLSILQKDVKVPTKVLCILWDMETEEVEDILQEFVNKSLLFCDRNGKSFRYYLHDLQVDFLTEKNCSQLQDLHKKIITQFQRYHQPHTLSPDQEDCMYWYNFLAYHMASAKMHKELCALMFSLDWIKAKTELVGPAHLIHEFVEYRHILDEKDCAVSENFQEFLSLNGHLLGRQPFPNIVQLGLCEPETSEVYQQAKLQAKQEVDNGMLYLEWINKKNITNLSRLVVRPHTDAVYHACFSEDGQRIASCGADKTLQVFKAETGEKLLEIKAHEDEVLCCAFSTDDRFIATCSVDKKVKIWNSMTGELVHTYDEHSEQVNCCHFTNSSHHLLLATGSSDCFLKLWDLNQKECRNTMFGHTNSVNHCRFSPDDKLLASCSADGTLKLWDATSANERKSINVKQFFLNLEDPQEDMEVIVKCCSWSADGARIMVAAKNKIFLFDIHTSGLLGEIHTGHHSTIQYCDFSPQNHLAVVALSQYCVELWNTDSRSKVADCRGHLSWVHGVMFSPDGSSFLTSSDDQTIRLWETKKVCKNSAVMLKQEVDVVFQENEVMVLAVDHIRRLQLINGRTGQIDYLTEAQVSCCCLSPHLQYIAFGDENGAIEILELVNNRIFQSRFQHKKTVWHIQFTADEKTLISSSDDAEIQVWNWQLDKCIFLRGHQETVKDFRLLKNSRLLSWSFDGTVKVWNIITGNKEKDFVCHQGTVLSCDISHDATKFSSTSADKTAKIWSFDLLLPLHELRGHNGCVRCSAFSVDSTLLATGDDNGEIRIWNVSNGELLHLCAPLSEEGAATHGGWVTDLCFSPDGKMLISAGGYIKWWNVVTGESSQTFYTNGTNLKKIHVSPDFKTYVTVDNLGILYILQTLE
The experiment in a line: SAR analysis of small molecule Activators of Apaf-1 in a Fluorescent assay. It counts as functional. Particulars: read-out: EC50_Mean.

Assay [13] addresses Cytochrome P450 2D6 (Homo sapiens, UniProt P10635).
Assay [14] concerns the target T6, Cytochrome P450 1A2 (Homo sapiens, UniProt P05177).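 Note: PubChem cytochrome P450 panel assay, CYP1A2 panel member.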
T6 sequence (P05177 whole entry): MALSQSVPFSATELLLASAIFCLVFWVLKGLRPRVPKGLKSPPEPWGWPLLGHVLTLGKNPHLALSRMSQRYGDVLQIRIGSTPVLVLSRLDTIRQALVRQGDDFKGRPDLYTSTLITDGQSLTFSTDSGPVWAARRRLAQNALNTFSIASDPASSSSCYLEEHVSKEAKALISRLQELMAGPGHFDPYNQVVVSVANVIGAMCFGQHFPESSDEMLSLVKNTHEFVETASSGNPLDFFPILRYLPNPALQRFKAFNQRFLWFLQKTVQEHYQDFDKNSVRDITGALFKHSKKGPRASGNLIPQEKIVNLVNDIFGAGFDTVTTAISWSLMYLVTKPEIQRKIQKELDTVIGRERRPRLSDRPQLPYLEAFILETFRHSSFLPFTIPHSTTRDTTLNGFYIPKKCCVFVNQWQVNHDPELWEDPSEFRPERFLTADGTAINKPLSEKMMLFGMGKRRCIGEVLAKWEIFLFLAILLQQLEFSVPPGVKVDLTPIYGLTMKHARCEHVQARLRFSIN

Assay [15] can be described thus: cytotoxicity in HPDE-C7 cells, cell-based, fluorescence, HTS (AID 430). Type of assay: functional. The following applies: Homo sapiens.
The nature of assay [16]: cytotoxicity in KRAS-transformed pancreatic duct cells, primary screen, cell-based, fluorescence, HTS (AID 431).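 Note: cell line used: HPDE-C7K.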 Particulars: Homo sapiens. Type of assay: functional.
Assay [17] addresses FAD-linked sulfhydryl oxidase ALR (Homo sapiens, UniProt P55789). As to the kind of experiment: inhibitors of human ALR sulfhydryl oxidase, dose response, biochemical, H2O2 detection, luminescence, cherry-pick (AID 493248).

Each structure is given as a SMILES string. Where a name gives a salt, the structure may show the parent alone. Calls of active or inactive are those of the source. Cut-off read from the data, not from the text of the source, for most assays here: actives have a measured EC50 and inactives only a lower limit.

Cytochrome P450 2D6, sequence (P10635 whole entry): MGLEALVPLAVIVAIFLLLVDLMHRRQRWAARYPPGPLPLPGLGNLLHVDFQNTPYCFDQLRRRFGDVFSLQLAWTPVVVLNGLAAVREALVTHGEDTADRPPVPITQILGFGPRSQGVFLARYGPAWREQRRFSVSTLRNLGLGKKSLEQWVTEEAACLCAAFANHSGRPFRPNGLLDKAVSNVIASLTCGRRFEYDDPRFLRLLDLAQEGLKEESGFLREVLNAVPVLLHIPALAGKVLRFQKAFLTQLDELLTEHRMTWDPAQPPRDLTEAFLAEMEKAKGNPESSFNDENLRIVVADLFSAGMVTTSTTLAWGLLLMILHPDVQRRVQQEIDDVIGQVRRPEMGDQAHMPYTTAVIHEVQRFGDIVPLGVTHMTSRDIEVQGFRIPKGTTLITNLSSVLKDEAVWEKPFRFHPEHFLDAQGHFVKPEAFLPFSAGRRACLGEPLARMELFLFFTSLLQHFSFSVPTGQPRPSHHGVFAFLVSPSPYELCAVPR
FAD-linked sulfhydryl oxidase ALR, sequence (P55789 whole entry): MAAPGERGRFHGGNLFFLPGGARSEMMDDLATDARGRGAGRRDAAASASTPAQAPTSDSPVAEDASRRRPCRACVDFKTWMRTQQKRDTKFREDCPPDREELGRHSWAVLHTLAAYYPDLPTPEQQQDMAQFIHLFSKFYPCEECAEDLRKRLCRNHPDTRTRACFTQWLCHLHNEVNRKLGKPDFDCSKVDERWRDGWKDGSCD

`O=C(NCCN1CCCC1)c1ccc(Cn2c(=S)[nH]c3cc4c(cc3c2=O)OCO4)cc1`: in [1], the IC50 is 27.2 µM (inactive).
`CN(C)c1ccc(C2(c3ccc(N(C)C)cc3)OC(=O)c3cc(N(C)C)ccc32)cc1`: the concentration at half-maximal activity (AC50) – broadly, the midpoint of the concentration-response curve, whichever way the signal moves – in [2] is 7.94 µM (inconclusive); in assay [3], 0.251 µM (inconclusive).
On to `O=C(Nc1nnc(-c2ccco2)o1)c1cccc(Cl)c1`, for which the EC50 is > 150 µM (inactive) in assay [4], 1.33 µM (active) in [5], > 180 µM (inactive) in assay [6] and > 150 µM (inactive) in [7].
For `O=C(Nc1nnc(-c2ccncc2)o1)c1ccc2ccccc2c1`, the EC50 in [4] is > 150 µM (inactive); in assay [8] it was 6.52 µM (active); in [9], > 150 µM (not active); in assay [5], 1.47 µM (active); in assay [6] it was > 180 µM (inactive); in assay [10], 19.5 µM (active). In addition, the EC50 in [7] was > 150 µM (inactive).
For the compound `CCOC(=O)Cc1csc(NC(=O)CSc2nnc(-c3ccncc3)o2)n1`, the EC50 was > 150 µM (inactive) in [4]; 0.517 µM (active) in [5]; > 180 µM (inactive) in assay [6]; > 150 µM (inactive) in assay [7]; > 53 µM (inactive) in assay [11].
`CCOC(=O)C1(C)Oc2ccccc2NC1=O` (centres undefined): the EC50 in assay [12] was > 100 µM (inactive).
Still for that read-out and setting: as for `COC(=O)c1coc(-c2cnc(OC)nc2)n1`, the figure is > 100 µM (inactive).
`NNC(=O)c1ccncc1` [ISONIAZID]: the AC50 is 12.6 µM (inconclusive) in assay [13], 6.31 µM (inconclusive) in [14] and 35.5 µM (inconclusive) in assay [3].
Regarding `CC1(C)CCC2=C(O1)c1ccccc1C(=O)C2=O` [LAPACHONE], the half-maximal activity concentration (AC50) in assay [3] is 15.8 µM (inconclusive).
Regarding `CC(CN1c2ccccc2Sc2ccccc21)N(C)C` (centres undefined) [PROMETHAZINE HYDROCHLORIDE], the EC50 in [15] and in [16] was > 20 µM (not active) in each case. In addition, the AC50 in [17] was 0.367 µM (active); in [3] it was 15.8 µM (inconclusive).
